Results on twelve compounds are retold here after ChEMBL document CHEMBL3991601, “The target landscape of clinical kinase drugs” (Science, 2017).

For assay [1], the target named is T1, General transcription and DNA repair factor IIH helicase subunit XPD (Homo sapiens, UniProt P18074).
T1 sequence (P18074 whole entry): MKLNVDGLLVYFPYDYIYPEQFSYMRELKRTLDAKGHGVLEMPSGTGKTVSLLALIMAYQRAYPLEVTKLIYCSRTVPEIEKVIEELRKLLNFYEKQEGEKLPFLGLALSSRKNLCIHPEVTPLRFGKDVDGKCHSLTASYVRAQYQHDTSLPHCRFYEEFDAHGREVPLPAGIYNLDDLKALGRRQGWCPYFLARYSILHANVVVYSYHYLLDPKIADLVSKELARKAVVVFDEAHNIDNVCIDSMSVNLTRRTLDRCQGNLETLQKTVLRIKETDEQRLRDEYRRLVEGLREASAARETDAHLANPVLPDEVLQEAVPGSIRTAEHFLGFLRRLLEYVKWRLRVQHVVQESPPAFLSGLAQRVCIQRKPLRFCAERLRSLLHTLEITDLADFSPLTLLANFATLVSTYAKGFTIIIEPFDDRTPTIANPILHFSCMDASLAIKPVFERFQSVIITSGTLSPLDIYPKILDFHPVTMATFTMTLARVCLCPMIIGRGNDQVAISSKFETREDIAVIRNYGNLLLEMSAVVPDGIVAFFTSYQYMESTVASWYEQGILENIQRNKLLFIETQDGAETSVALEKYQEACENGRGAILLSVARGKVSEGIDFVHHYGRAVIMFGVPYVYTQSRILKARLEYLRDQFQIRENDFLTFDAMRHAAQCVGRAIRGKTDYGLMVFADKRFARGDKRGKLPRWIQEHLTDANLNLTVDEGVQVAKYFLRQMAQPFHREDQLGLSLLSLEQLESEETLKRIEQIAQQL
Conditions: read-out: Kd apparent; k-562, colo 205, sk-n-be(2) and mv-4-11.

Assay [2] concerns the target ATP-dependent RNA helicase DDX3X (Homo sapiens, UniProt O00571).
The target in assay [3] is Receptor-interacting serine/threonine-protein kinase 3 (Homo sapiens, UniProt Q9Y572).
For assay [4], the target named is Mitogen-activated protein kinase kinase kinase kinase 1 (Homo sapiens, UniProt Q92918).
Assay [5] deals with Casein kinase I isoform gamma-1 (Homo sapiens, UniProt Q9HCP0).
In assay [6] the target is T2, NUAK family SNF1-like kinase 2 (Homo sapiens, UniProt Q9H093).
T2 sequence (Q9H093 whole entry): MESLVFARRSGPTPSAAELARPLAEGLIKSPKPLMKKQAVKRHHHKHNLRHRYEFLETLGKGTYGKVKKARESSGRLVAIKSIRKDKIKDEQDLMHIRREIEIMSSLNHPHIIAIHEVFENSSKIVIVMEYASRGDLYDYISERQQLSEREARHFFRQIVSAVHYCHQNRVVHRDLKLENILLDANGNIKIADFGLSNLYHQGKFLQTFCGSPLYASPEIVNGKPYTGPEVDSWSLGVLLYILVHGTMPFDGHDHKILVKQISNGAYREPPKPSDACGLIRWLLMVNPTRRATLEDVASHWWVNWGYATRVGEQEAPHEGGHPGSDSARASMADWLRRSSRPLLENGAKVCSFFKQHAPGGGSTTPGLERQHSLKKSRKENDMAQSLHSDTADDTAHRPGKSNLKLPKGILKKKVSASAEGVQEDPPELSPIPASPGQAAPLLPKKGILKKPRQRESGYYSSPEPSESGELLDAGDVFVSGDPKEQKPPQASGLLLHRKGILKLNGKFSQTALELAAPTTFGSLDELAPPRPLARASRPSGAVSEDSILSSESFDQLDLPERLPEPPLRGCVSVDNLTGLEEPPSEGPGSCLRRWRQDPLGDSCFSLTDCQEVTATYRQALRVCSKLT

The target of assay [7] is T3, Phosphorylase b kinase gamma catalytic chain, liver/testis isoform (Homo sapiens, UniProt P15735).
T3 sequence (P15735 whole entry): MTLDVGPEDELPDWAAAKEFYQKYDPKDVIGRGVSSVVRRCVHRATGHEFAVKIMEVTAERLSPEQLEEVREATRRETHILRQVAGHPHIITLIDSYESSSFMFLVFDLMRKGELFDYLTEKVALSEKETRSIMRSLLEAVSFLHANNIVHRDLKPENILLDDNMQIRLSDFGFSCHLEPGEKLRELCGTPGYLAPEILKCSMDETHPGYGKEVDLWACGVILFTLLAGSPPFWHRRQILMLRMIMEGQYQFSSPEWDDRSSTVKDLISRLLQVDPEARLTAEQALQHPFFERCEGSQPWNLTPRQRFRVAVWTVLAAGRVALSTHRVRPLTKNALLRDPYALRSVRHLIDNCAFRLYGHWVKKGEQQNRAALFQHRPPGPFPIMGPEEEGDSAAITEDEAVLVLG

Assay [8] has as its target T4, Non-receptor tyrosine-protein kinase TNK1 (Homo sapiens, UniProt Q13470).
T4 sequence (Q13470 whole entry): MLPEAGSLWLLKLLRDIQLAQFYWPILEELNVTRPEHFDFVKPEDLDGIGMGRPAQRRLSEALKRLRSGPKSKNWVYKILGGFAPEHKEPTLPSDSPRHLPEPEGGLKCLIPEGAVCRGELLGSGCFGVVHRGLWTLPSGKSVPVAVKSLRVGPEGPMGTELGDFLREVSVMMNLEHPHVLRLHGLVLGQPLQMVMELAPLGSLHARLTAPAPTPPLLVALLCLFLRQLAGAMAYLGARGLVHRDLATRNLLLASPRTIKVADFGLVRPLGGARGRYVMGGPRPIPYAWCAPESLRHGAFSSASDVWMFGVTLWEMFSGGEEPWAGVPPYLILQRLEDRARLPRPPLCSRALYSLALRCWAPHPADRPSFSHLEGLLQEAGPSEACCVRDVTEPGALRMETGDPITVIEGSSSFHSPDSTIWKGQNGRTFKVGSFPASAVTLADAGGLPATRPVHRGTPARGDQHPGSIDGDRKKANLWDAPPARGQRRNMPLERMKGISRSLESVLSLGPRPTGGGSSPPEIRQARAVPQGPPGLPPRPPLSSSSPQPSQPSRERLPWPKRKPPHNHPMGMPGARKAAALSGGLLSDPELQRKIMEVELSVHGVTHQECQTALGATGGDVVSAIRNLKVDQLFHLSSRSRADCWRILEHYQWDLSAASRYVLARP

Each structure is given as a SMILES string. Calls of active or inactive are those of the source. For most assays here, no stated cut-off is given here; in the data, actives have a measured Kd and inactives only a lower limit. Some results are limits rather than exact numbers.

Sequence of Receptor-interacting serine/threonine-protein kinase 3 (Q9Y572 whole entry): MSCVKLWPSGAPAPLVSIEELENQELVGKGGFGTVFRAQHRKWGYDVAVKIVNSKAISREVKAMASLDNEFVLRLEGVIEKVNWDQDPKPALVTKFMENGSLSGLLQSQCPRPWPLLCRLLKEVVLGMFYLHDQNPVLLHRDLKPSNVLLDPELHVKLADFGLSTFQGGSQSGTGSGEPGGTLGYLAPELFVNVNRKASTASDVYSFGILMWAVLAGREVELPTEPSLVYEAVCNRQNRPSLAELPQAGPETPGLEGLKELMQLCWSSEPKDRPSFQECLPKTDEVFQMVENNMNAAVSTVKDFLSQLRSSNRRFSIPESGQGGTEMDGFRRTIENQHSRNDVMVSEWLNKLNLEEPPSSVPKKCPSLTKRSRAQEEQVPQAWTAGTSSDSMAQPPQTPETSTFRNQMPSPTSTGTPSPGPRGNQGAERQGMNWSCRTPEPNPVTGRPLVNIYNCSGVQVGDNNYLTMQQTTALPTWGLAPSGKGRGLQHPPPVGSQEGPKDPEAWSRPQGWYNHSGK
Sequence of Mitogen-activated protein kinase kinase kinase kinase 1 (Q92918 whole entry, canonical isoform): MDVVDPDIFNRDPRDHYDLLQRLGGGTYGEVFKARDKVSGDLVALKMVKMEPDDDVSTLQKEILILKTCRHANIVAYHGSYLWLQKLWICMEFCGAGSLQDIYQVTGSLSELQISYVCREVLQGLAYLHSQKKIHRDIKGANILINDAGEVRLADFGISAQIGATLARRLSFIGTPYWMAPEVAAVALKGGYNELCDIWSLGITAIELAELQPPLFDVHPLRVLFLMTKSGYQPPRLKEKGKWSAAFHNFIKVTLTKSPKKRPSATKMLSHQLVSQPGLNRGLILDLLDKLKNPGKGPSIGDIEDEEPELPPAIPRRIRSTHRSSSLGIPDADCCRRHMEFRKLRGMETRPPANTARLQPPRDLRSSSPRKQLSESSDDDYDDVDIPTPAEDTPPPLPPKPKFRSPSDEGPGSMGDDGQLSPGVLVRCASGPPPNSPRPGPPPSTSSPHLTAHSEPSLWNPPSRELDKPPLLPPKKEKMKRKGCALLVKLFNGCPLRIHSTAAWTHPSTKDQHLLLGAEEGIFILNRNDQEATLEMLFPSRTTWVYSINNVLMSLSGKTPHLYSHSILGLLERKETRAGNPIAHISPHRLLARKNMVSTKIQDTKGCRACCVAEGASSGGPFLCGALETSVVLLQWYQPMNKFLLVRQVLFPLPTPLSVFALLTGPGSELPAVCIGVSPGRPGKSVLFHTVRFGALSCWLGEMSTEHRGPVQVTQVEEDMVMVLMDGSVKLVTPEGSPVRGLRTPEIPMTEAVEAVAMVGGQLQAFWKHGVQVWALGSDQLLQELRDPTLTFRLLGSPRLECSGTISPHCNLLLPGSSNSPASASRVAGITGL
Sequence of Casein kinase I isoform gamma-1 (Q9HCP0 whole entry, canonical isoform): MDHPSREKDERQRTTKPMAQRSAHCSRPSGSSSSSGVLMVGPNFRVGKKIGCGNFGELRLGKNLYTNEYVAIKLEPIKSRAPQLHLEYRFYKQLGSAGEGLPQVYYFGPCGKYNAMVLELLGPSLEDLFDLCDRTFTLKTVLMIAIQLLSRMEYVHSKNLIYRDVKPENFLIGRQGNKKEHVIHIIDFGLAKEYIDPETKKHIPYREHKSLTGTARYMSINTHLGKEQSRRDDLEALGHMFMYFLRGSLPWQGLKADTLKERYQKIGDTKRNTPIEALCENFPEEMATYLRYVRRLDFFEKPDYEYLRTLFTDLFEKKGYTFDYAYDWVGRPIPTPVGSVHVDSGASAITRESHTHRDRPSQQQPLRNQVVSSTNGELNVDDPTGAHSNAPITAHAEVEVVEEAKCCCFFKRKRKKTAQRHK
Sequence of ATP-dependent RNA helicase DDX3X (O00571 whole entry): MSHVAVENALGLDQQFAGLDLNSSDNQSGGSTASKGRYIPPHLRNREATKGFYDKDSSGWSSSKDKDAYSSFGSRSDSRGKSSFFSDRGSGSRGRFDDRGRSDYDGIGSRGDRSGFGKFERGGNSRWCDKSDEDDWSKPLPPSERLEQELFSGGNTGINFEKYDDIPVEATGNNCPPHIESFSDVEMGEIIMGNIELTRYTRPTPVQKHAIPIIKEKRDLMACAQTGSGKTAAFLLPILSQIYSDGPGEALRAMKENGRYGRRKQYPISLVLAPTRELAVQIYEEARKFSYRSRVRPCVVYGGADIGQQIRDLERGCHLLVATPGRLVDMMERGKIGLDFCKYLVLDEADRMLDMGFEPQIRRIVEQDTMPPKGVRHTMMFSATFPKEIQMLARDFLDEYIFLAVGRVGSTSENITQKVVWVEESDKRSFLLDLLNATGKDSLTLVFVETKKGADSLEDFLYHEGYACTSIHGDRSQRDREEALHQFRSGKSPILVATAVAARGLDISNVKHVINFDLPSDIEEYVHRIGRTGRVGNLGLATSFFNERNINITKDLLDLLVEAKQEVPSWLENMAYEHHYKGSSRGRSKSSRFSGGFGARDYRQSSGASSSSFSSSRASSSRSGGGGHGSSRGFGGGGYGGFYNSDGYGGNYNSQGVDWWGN

Take `COc1cc(OC)c(/C=C/S(=O)(=O)Cc2ccc(OC)c(NCC(=O)O)c2)c(OC)c1` [RIGOSERTIB]: the Kd in assay [1], in assay [2], in assay [3], in assay [4], in assay [5] and in assay [6] was > 30 µM (inactive) throughout. Besides, the Kd in assay [7] and in assay [8] was > 30 µM (inactive) in each case.
In the case of `CCn1c(=O)c(-c2cc[nH]n2)cc2c(C)nc(N)nc21` [VOXTALISIB], the Kd in assay [1], in assay [2], in assay [3], in assay [4], in assay [5] and in assay [6] was > 30 µM (inactive) throughout. In addition, the Kd in assay [7] and in assay [8] was > 30 µM (inactive) throughout.
`OCCn1cc(-c2cnc3nnn(Cc4ccc5ncccc5c4)c3n2)cn1` [PF-04217903]: the Kd in assay [1], in assay [2], in assay [3], in assay [4], in assay [5] and in assay [6] was > 30 µM (inactive) throughout. Besides, the Kd in assay [7] and in assay [8] was > 30 µM (inactive) throughout.
With `CO[C@H]1C[C@@H]2CC[C@@H](C)[C@@](O)(O2)C(=O)C(=O)N2CCCC[C@H]2C(=O)O[C@H]([C@H](C)C[C@@H]2CC[C@@H](OCCO)[C@H](OC)C2)CC(=O)[C@H](C)/C=C(\C)[C@@H](O)[C@@H](OC)C(=O)[C@H](C)C[C@H](C)/C=C/C=C/C=C/1C` [EVEROLIMUS], the Kd in assay [1], in assay [2], in assay [3], in assay [4], in assay [5] and in assay [6] was > 30 µM (inactive) in each case. In addition, the Kd in assay [7] and in assay [8] was > 30 µM (inactive) throughout.
On to `CCCS(=O)(=O)Nc1ccc(F)c(C(=O)c2c[nH]c3ncc(-c4ccc(Cl)cc4)cc23)c1F` [VEMURAFENIB], for which the Kd was > 30 µM (inactive) in assay [1]; > 30 µM (inactive) in assay [2]; 2.08 µM (active) in assay [3]; > 30 µM (inactive) in assay [4]; > 30 µM (inactive) in assay [5]; > 30 µM (inactive) in assay [6]. For the same compound, the Kd in assay [7] and in assay [8] was > 30 µM (inactive) throughout.
With `O=C(Nc1ccc(-c2ccnc(Nc3ccc(N4CCOCC4)cc3)n2)cc1)C1CCCN1` (stereo unspecified) [XL-019], the Kd in assay [1], in assay [2], in assay [3], in assay [4], in assay [5] and in assay [6] was > 30 µM (inactive) each time. In addition, the Kd in assay [7] and in assay [8] was > 30 µM (inactive) in each case.
As to `Cn1ncc(Cl)c1-c1cc(C(=O)N[C@H](CN)Cc2cccc(F)c2)sc1Cl` [AFURESERTIB], the Kd in assay [1], in assay [2], in assay [3], in assay [4], in assay [5] and in assay [6] was > 30 µM (inactive) throughout. Besides, the Kd in assay [7] and in assay [8] was > 30 µM (inactive) in each case.
Turning to `CNC(=O)CN1CCC(Oc2cc3c(Nc4cccc(Cl)c4F)ncnc3cc2OC)CC1` [SAPITINIB], the Kd was > 30 µM (inactive) in assay [1]; > 30 µM (inactive) in assay [2]; 1.17 µM (active) in assay [3]; > 30 µM (inactive) in assay [4]; > 30 µM (inactive) in assay [5]; > 30 µM (inactive) in assay [6]. The Kd in assay [7] and in assay [8] was > 30 µM (inactive) throughout.
For `CC(=O)Nc1cccc(-n2c(=O)n(C3CC3)c(=O)c3c(Nc4ccc(I)cc4F)n(C)c(=O)c(C)c32)c1` [TRAMETINIB], the Kd in assay [1], in assay [2], in assay [3], in assay [4], in assay [5] and in assay [6] was > 30 µM (inactive) in each case. In addition, the Kd in assay [7] and in assay [8] was > 30 µM (inactive) each time.
As to `COC(=O)N[C@@H](C)CNc1nccc(-c2cn(C(C)C)nc2-c2cc(Cl)cc(NS(C)(=O)=O)c2F)n1` [ENCORAFENIB], the Kd in assay [1] is > 30 µM (inactive); in assay [2], > 30 µM (inactive); in assay [3], 0.967 µM (active); in assay [4], > 30 µM (inactive); in assay [5], > 30 µM (inactive); in assay [6] it was > 30 µM (inactive). Also, the Kd in assay [7] and in assay [8] was > 30 µM (inactive) each time.
For `CNC(=O)c1ccc(-c2cnc3ncc(Cc4ccc5ncccc5c4)n3n2)cc1F` [CAPMATINIB], the Kd in assay [1], in assay [2], in assay [3], in assay [4], in assay [5] and in assay [6] was > 30 µM (inactive) throughout. In addition, the Kd in assay [7] and in assay [8] was > 30 µM (inactive) each time.
Consider `COC(=O)[C@@]1(O)C[C@H]2O[C@]1(C)n1c3ccccc3c3c4c(c5c6ccccc6n2c5c31)C(=O)NC4` [K-252A], for which the Kd in assay [1] is > 30 µM (inactive); in assay [2] it was > 30 µM (inactive); in assay [3] it was > 30 µM (inactive); in assay [4], 0.452 µM (active); in assay [5], > 30 µM (inactive); in assay [6], > 30 µM (inactive). Also, the values for the Kd in assay [7] and in assay [8] were 3.26 µM (active) and 0.287 µM (active), respectively.
